Assay [1] addresses GABA-A receptor; alpha-1/beta-2/gamma-2 (Homo sapiens) (UniProt P14867+P47870+P18507). In words: Antagonist activity at human GABAA alpha1beta2gamma2L receptor expressed in Xenopus laevis oocytes assessed as inhibition of GABA-induced current at 300 uM by two electrode voltage clamp assay relative to control. Particulars: Oocyte. It is filed as cell-based. On the technique in general: Two-electrode voltage clamp holds a large cell at a set potential and records current.

The target of assay [2] is T1, Gamma-aminobutyric acid receptor subunit rho-1 (Homo sapiens, UniProt P24046). In words: Antagonist activity at human GABAC rho1 receptor expressed in Xenopus laevis oocytes assessed as inhibition of GABA-induced current at 600 uM by two electrode voltage clamp assay relative to control. It is filed as cell-based. The settings on record: Oocyte.
The target of assay [3] is T1, Gamma-aminobutyric acid receptor subunit rho-1. In words: Agonist activity at GABAC rho1 receptor (unknown origin).
Assay [4] has the same target. In words: Antagonist activity at human GABAC rho1 receptor expressed in Xenopus laevis oocytes assessed as inhibition of GABA-induced current preincubated for 5 mins by two electrode voltage clamp assay. The format is cell-based, Oocyte.
Assay [5] has the same target. In words: Antagonist activity at human GABAC rho1 receptor expressed in Xenopus laevis oocytes assessed as inhibition of GABA-induced current by two electrode voltage clamp assay. It is filed as cell-based, Oocyte.
A further assay is filed under the species Homo sapiens. In words: Selectivity for human GABAC rho1 receptor over human GABAA alpha1beta2gamma2L receptor.
The target of assay [6] is T1, Gamma-aminobutyric acid receptor subunit rho-1. In words: Antagonist activity at human GABAC rho1 receptor expressed in Xenopus laevis oocytes assessed as inhibition of GABA-induced current at 300 uM by two electrode voltage clamp assay relative to control. It is filed as cell-based. The settings on record: Oocyte.
Assay [7] is described as follows: Agonist activity at GABAC receptor (unknown origin) expressed in Xenopus laevis oocytes. It is filed as cell-based. Particulars: Homo sapiens, Oocyte.
Assay [8] concerns the target T1, Gamma-aminobutyric acid receptor subunit rho-1. In words: Partial agonist activity at GABAC rho1 receptor (unknown origin).
Assay [9] addresses GABA-A receptor; agonist GABA site. In words: Agonist activity at GABAA receptor (unknown origin). It is filed as protein-complex assay, Homo sapiens.

Molecules are shown by their SMILES. Active and inactive are the calls of the source. The calls are words filed in the database; no cut-off is given here.

T1 sequence (P24046 whole entry): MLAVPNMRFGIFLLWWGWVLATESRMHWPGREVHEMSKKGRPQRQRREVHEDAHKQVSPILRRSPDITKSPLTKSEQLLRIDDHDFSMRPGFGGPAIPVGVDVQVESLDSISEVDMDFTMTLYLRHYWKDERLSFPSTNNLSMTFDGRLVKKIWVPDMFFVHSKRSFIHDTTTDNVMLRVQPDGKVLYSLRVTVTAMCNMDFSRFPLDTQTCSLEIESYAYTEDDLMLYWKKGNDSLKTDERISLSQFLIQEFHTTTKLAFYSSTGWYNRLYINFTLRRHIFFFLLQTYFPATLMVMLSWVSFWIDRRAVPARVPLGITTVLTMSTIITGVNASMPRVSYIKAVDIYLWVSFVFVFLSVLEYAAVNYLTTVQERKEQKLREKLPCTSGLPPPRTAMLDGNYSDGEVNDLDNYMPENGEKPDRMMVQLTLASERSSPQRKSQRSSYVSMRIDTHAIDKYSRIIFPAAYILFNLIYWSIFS

Regarding `CCCCP(=O)(O)C1=CC[C@H](NC(=O)CCCCCNC(=O)c2ccccc2NC)C1`, the inhibition (as a rule, the percentage by which the read-out fell short of the control) in assay [1] is “inactive”. Moreover, the inhibition in assay [2] stood at 62%. Consider `CCCCP(=O)(O)C1=CC[C@H](NC(=O)CCCCNC(=O)c2ccccc2NC)C1`, for which the inhibition in assay [2] was 31%.

Turning to `CCCCP(=O)(O)C1=CC[C@H](NC(=O)CCCCCCNC(=O)c2ccccc2NC)C1`, the inhibition in assay [2] is 55%. Turning to `CCCCP(=O)(O)C1=CC[C@H](NC(=O)CNC(=O)c2ccccc2NC)C1`, in assay [2], the inhibition was found to be 8%.

On to `CCCCP(=O)(O)C1=CC[C@H](NC(=O)CCCCCCCCCCNC(=O)c2ccccc2NC)C1`, for which the inhibition in assay [2] is 8%. For the compound `CCCCP(=O)(O)C1=CC[C@H](NC(=O)CCCNC(=O)c2ccccc2NC)C1`, the inhibition in assay [2] amounted to 23%. Regarding `NC[C@@H]1C[C@@H]1C(=O)O`, the EC50 – broadly, the concentration giving half of the maximal effect – in [3] amounted to 39.7 µM. For `CCCCP(=O)(O)C1=CC[C@H](NC(=O)CCCCCNC(=O)CCC2=C3C(C)=CC(C)=[N+]3[B-](F)(F)n3c(C)cc(C)c32)C1`, the inhibition result in [1] is “inactive”. In addition, the IC50 (in general, the concentration that gives 50% inhibition) amounted to 58.6 µM in assay [4] and 103 µM in assay [5]. Also, the Selectivity ratio in the assay listed under Homo sapiens is above 100. Consider `CCCCP(=O)(O)C1=CC[C@H](NC(=O)CCCCCCCNC(=O)c2ccccc2NC)C1`, for which the inhibition in [2] worked out at 24%.

Regarding `CCCCP(=O)(O)C1=CC[C@@H](N)C1`, the inhibition entry in assay [1] is “inactive”. In assay [6], the inhibition was 92%.

With `O=C(CCCC[C@@H]1SC[C@@H]2NC(=O)N[C@@H]21)NCCCCCC(=O)NCc1cc(O)no1`, the midpoint of the response in assay [7], the EC50, lay at 20 µM.

In turn, `Cc1nc[nH]c1CC(=O)O` yielded an EC50 in assay [3] of 22 µM. As to `CCCCP(=O)(O)C1=CC[C@@H](NC(=O)CCCCCNC(=O)c2ccccc2NC)C1`, in assay [1], the inhibition entry was “inactive”. For the same compound, the inhibition in assay [2] came out at 56%.

In the case of `NCc1cc(=O)[nH]o1` [MUSCIMOL], the concentration for a half-maximal effect (EC50) came out at 2 µM in assay [7], 2.3 µM in assay [8] and 27 µM in assay [9]. As for `CCCCP(=O)(O)C1=CC[C@H](NC(=O)CCCC[C@@H]2SC[C@@H]3NC(=O)N[C@@H]32)C1`, in assay [6], the inhibition result is “inactive”.

`CCCCP(=O)(O)C1=CC[C@H](NC(=O)CCCCCNc2ccc([N+](=O)[O-])c3nonc23)C1`: the inhibition result in assay [1] is “inactive”. Also, the results for the IC50 in assay [4] and in assay [5] were 193 µM and 281 µM, respectively.

For the compound `CCCCP(=O)(O)C1=CC[C@H](N)C1`, the inhibition result in assay [1] is “inactive”. For the same compound, the IC50 in assay [5] came to 9.76 µM. Besides, the inhibition in assay [6] is 97%. On to `CCCCP(=O)(O)C1=CC[C@H](NC(=O)CCCCCNC(=O)CCCC[C@@H]2SC[C@@H]3NC(=O)N[C@@H]32)C1`, for which the inhibition in assay [1] is 9%. For the same compound, the IC50 in [4] turned out to be 76.5 µM; in assay [5], 148 µM.

Source of the values: ChEMBL document CHEMBL2331375, “Design, Synthesis, and Pharmacological Evaluation of Fluorescent and Biotinylated Antagonists of ρ1 GABAC Receptors” (ACS Med Chem Lett, 2013).
